Data from paper PMC4547793, “Trichodysplasia spinulosa-Associated Polyomavirus Uses a Displaced Binding Site on VP1 to Engage Sialylated Glycolipids” (PLoS Pathogens, 2015).

How the values were obtained:
Assay type in all cases: binding
TSPyV VP1 [1] = target: T1, TSPyV VP1 (Trichodysplasia spinulosa-associated polyomavirus, UniProt E2ESL7); assay: X-ray crystal structure, soaked ([…] Å); conditions: 10 mM glycan, 15 min soak of native crystals, reservoir pH 5.0; BC2-loop site with ccw DE-loop
T1 construct: N- and C-terminally truncated VP1 (aa 31-304), pET28b, E. coli BL21(DE3); unassembled homopentamer

TSPyV VP1 [2] = target: T1, TSPyV VP1; assay: X-ray co-crystal structure ([…] Å); conditions: 10 mM glycan, co-crystallization, 20 °C, reservoir pH 5.0; BC2-loop site with ccw DE-loop
TSPyV VP1 [3] = target: T1, TSPyV VP1; assay: X-ray co-crystal structure ([…] Å); also STD NMR; conditions: 10 mM glycan, co-crystallization, 20 °C, reservoir pH 5.0; STD NMR pH 7.4, 288 K; BC2-loop site with ccw DE-loop

CC(=O)N[C@H]1[C@H]([C@H](O)[C@H](O)CO)O[C@@](O[C@H]2[C@@H](O)[C@@H](CO)O[C@@H](O[C@H]3[C@H](O)[C@@H](O)C(O)O[C@@H]3CO)[C@@H]2O)(C(=O)O)C[C@@H]1O (stereo partly drawn) [3’SL]
X-ray crystal structure, soaked (1.55 Å) (TSPyV VP1 [1]): 4U62 (TSPyV VP1-3’SL)

CC(=O)N[C@H]1[C@H]([C@H](O)[C@H](O)CO)O[C@@](OC[C@H]2O[C@@H](O[C@H]3[C@H](O)[C@@H](O)C(O)O[C@@H]3CO)[C@H](O)[C@@H](O)[C@H]2O)(C(=O)O)C[C@@H]1O (stereo partly drawn) [6’SL]
X-ray co-crystal structure (1.65 Å) (TSPyV VP1 [2]): 4U61 (TSPyV VP1-6’SL)

CC(=O)N[C@H]1[C@H](O[C@@H]2[C@H](O[C@]3(C(=O)O)C[C@H](O)[C@@H](NC(C)=O)[C@H]([C@H](O)[C@H](O)CO)O3)[C@@H](O)[C@H](O[C@H]3[C@H](O)[C@@H](O)C(O)O[C@@H]3CO)O[C@@H]2CO)O[C@H](CO)[C@H](O)[C@@H]1O[C@@H]1O[C@H](CO)[C@H](O)[C@H](O)[C@H]1O (stereo partly drawn) [GM1 glycan]
X-ray co-crystal structure (1.50 Å); also STD NMR (TSPyV VP1 [3]): 4U60 (TSPyV VP1-GM1 glycan)
